The numbers were not newly measured in US9961900B2, “Herbicide formulations” (priority 2012, dated 2018), which cites them from elsewhere.

≈ marks a conversion by molar mass, not a printed value. Read-outs that look alike come from different tables or passages of the source. Some results are limits rather than exact numbers.

Experiment in series [1]: not given
The source holds these as a separate data set.

Experiment in series [2]: not given
The source holds these as a separate data set.

For series [3] the following is noted: for Aqueous hydrolysis: at pH 7 and 20° C.

On to `C=CCO/N=C(\CCC)C1=C(O)CC(C)(C)C(C(=O)OC)C1=O` (racemic) [aloxydim, methyl (1RS)-3-[(E)-1-(allyloxyimino)butyl]-4-hydroxy-6,6-dimethyl-2-oxocyclohex-3-enecarboxylate], for which the “Aqueous photolysis DT50” value (pH 7) is listed as “Aqueous photolysis DT50 at pH 7: 0.22 days ^+”.
For `CCOC(=O)C(Cl)Cc1cc(-n2nc(C)n(C(F)F)c2=O)c(F)cc1Cl` (racemic) [carfentrazone-ethyl, ethyl (RS)-2-chloro-3-{2-chloro-5-[4-(difluoromethyl)-4,5-dihydro-3-methyl-5-oxo-1H-1,2,4-triazol-1-yl]-4-fluorophenyl}propionate], in series [1] (20° C.), the Solubility in acetone was 2000 mg/mL (≈ 4850 mM), the Solubility in ethanol was 2000 mg/mL (≈ 4850 mM), the Solubility in hexane is 30 mg/mL (≈ 72.8 mM) and the Solubility in toluene is 900 mg/mL (≈ 2180 mM). Moreover, the Solubility in water entry in series [1] (20° C.) is given as “Water: 22 mg/L (20° C.)”. The “log P (octanol-water)” value in series [2] (pH 7, 20° C.) was “logP = 3.36”. The “Aqueous hydrolysis (DT50)” value in series [3] (20° C. and pH 7) was 13.7 (non-persistent) days. In addition, in series [3] (pH 5, 20° C.), the Aqueous hydrolysis stability result was “pH sensitive: stable at pH 5,”. The “Hydrolysis DT50” value in series [3] (pH 9, 20° C.) was “DT50 5.1 hours at pH 9, (20° C.)^+”.
In the case of `CCS[C@H](C)C[C@H]1CC(=O)C(C(CC)=NOC/C=C/Cl)=C(O)C1` (racemic) [clethodim, (5RS)-2-{(1EZ)-1-[(2E)-3-chloroallyloxyimino]propyl}-5-[(2RS)-2-(ethylthio)propyl]-3-hydroxycyclohex-2-en-1-one], the “Aqueous photolysis DT50” value (pH 5, 25° C.) is on record as 1.6 days; the “Aqueous photolysis DT50” value (pH 7, 25° C.) is listed as “Aqueous photolysis DT50 at pH 7: 5.45 days (25° C.)”; the “Aqueous photolysis DT50” value (pH 9, 25° C.) is 7.79 days.
As to `CCCC(=NOCC)C1=C(O)C[C@@H]([C@H]2CCCSC2)CC1=O` (racemic) [cycloxydim, (5RS)-2-[(EZ)-1-(ethoxyimino)butyl]-3-hydroxy-5-[(3RS)-thian-3-yl]cyclohex-2-en-1-one], the “Aqueous photolysis DT50” value (pH 7) is given as “Aqueous photolysis DT50 at pH 7: 0.05 days ^+”.
Turning to `CC(Oc1ccc(Oc2ccc(Cl)cc2Cl)cc1)C(=O)O` (racemic) [diclofop, (RS)-2-[4-(2,4-dichlorophenoxy)phenoxy]propionic acid], the “log P (octanol-water)” value is “log P = 2.81” in series [2] (pH 5) and “log P = 1.61” in series [2] (pH 7).
In the case of `CCOC(=O)C(C)Oc1ccc(Oc2nc3ccc(Cl)cc3s2)cc1` (racemic) [fenthiaprop-ethyl, ethyl (RS)-2-[4-(6-chloro-1,3-benzothiazol-2-yloxy)phenoxy]propionate], in series [1], the Solubility in acetone result was “In acetone, ethyl acetate, toluene, >500 g/kg;”; the Solubility in cyclohexane is > 40 g/kg; the Solubility in ethanol was > 50 mg/mL; the “Solubility in ethyl acetate” value is reported as “In acetone, ethyl acetate, toluene, >500 g/kg;”. Also, in series [1], the Solubility in n-octanol is > 50 mg/mL; the Solubility in toluene result is “In acetone, ethyl acetate, toluene, >500 g/kg;”; the Solubility in water result is recorded as “Water: 0.8 mg/L”.
As for `CCCCOC(=O)C(C)Oc1ccc(Oc2ccc(C(F)(F)F)cn2)cc1` (racemic) [fluazifop-butyl, butyl (RS)-2-{4-[5-(trifluoromethyl)-2-pyridyloxy]phenoxy}propionate], in series [1] (20° C.), the “Solubility in propylene glycol” value was “dichloromethane, and xylene. Propylene glycol, 24 g/L”. Also, in series [1] (pH 6.5), the Solubility in water entry is “Water: 1 mg/L at pH 6.5”. Besides, the “log P (octanol-water)” value in series [2] (20° C.) is recorded as “log P = 4.5”.
In the case of `CC(Oc1ccc(Oc2ncc(C(F)(F)F)cc2Cl)cc1)C(=O)O` (racemic) [haloxyfop, (RS)-2-{4-[3-chloro-5-(trifluoromethyl)-2-pyridyloxy]phenoxy}propionic acid], the “Aqueous hydrolysis (DT50)” value in series [3] (20° C. and pH 7) is given as “Stable”. Further, where the note is “pH 7”, the “Aqueous photolysis DT50” value is “Aqueous photolysis DT50 at pH 7: 12 days”.
With `CCOC(=O)C(C)Oc1ccc(Oc2cnc3cc(Cl)ccc3n2)cc1` (racemic) [quizalofop-ethyl, ethyl (2RS)-2-[4-(6-chloroquinoxalin-2-yloxy)phenoxy]propionate], the “Stability in aqueous media” value in series [3] (pH 3) is “Stable at pH 3-7 ^+”.
Take `CCCC(=NOCC)C1=C(O)C[C@@H](C[C@@H](C)SCC)CC1=O` (racemic) [sethoxydim, (5RS)-2-[(EZ)-1-(ethoxyimino)butyl]-5-[(2RS)-2-(ethylthio)propyl]-3-hydroxycyclohex-2-en-1-one]: the “Aqueous photolysis DT50” value (pH 7) was “Aqueous photolysis DT50 at pH 7: 0.02 days ^+”.
For `CCON=C(CC)C1=C(O)CC(c2c(C)cc(C)cc2C)CC1=O` (racemic) [tralkoxydim, (RS)-2-[(EZ)-1-(ethoxyimino)propyl]-3-hydroxy-5-mesitylcyclohex-2-en-1-one], the figures for the Solubility in water in series [1] (pH 5.2), in series [1] (pH 6.5) and in series [1] (pH 9) were 6.7 mg/L at 22 °C (pH 5.2), 6.1 mg/L at 22 °C (pH 6.5) and 9820 mg/L at 22 °C (pH 9.0), respectively. Moreover, the “Aqueous hydrolysis (DT50)” value in series [3] (20° C. and pH 7) was “at 20 °C and pH 7: 140 days”. For the same compound, the “Hydrolysis DT50” value in series [3] (pH 5, 25° C.) is “pH sensitive: DT50 9 days at pH 5,”. The Aqueous hydrolysis stability result in series [3] (pH 9) is “stable at pH 9, all at 25° C.^+”. The “Aqueous photolysis DT50” value (pH 7) is on record as “Aqueous photolysis DT50 at pH 7: 5.8 days 5.8 ^+”.
In the case of `C#CCOc1cc(-n2nc3n(c2=O)CCCC3)c(Cl)cc1Cl` [azafenidin, 2-(2,4-dichloro-5-prop-2-ynyloxyphenyl)-5,6,7,8-tetrahydro-1,2,4-triazolo[4,3-a]pyridin-3(2H)-one], the Solubility in water result in series [1] (20° C.) is on record as “Water: 16 mg/L (20° C.) ^++”. Also, the “log P (octanol-water)” value in series [2] (pH 7, 20° C.) is listed as “logP = 2.7”. Further, the “Aqueous photolysis DT50” value (Pesticide Properties Database) is listed as 0.5 days.
Regarding `COc1nc(C)nc(NC(=O)NS(=O)(=O)c2ccccc2Cl)n1` [chlorsulfuron], the “Aqueous hydrolysis (DT50)” value in series [3] (at pH 5) was 1 days; in series [3] (at pH 7) it was “Stable”. Besides, the “Photolytic stability DT50” value (pH 7) is “DT50: 18.8 d”.
Take `C#CCOC(=O)[C@@H](C)Oc1ccc(Oc2ncc(Cl)cc2F)cc1` [clodinafop-propargyl, prop-2-ynyl (R)-2-[4-(5-chloro-3-fluoro-2-pyridyloxy)phenoxy]propionate]: the “Behaviour in alkaline media” value in series [3] (alkaline media) was “hydrolyzes”. Besides, the “Hydrolytic DT50” value in series [3] (pH 7, 25° C.) is 4.8 days; in series [3] (pH 9, 25° C.), 0.07 days. The “Aqueous photolysis DT50” value (pH 7) was “Aqueous photolysis DT50 at pH 7: 24 days”.
Regarding `CCCCOC(=O)[C@@H](C)Oc1ccc(Oc2ccc(C#N)cc2F)cc1` [cyhalofop-butyl, butyl (R)-2-[4-(4-cyano-2-fluorophenoxy)phenoxy]propionate], the “log P (octanol-water)” value in series [2] (pH 7, 20° C.) is on record as “log P = 4.8”. The “Aqueous hydrolysis (DT50)” value in series [3] (20° C. and pH 7) was “Aqueous hydrolysis DT50 at 20 °C and pH 7: 97 days”. Further, the Aqueous hydrolysis stability entry in series [3] (pH 4, 25° C.) is recorded as “Stable”. The “Hydrolysis DT50” value in series [3] (pH 9, 25° C.) is recorded as 2 days.
Take `CCCCOC(=O)[C@@H](C)Oc1ccc(Oc2ccc(C(F)(F)F)cn2)cc1` [fluazifop-P-butyl, butyl (R)-2-{4-[5-(trifluoromethyl)-2-pyridyloxy]phenoxy}propionate]: in series [3] (20° C. and pH 7), the “Aqueous hydrolysis (DT50)” value is “Aqueous hydrolysis DT50 (days) at 20 °C and pH 7: 78”. The “Hydrolysis DT50” value in series [3] (pH 5, 25° C., darkness) was “Stable”; in series [3] (pH 9, 25° C., darkness), 1.21 days. The “Aqueous photolysis DT50” value (pH 7) is recorded as “Aqueous photolysis DT50 at pH 7: 6 days”.
On to `Cc1ccn2nc(S(=O)(=O)Nc3c(F)cccc3F)nc2n1` [flumetsulam], for which the “Photolytic stability DT50” value (pH 7) is reported as “DT50: 270 d”.
Turning to `C[C@@H](Oc1ccc(Oc2ncc(C(F)(F)F)cc2Cl)cc1)C(=O)O` [haloxyfop-P, (R)-2-{4-[3-chloro-5-(trifluoromethyl)-2-pyridyloxy]phenoxy}propionic acid], for the setting “pH 7”, the “Aqueous photolysis DT50” value is “Aqueous photolysis DT50 at pH 7: 12 days”.
Turning to `COc1cc(OC)n2nc(S(=O)(=O)Nc3c(Cl)ccc(C)c3Cl)nc2n1` [metosulam], the Aqueous hydrolysis result in series [3] is listed as “Stable”. For the same compound, the “Photolytic stability DT50” value (pH 7) is reported as “DT50: 31.1 d”.
As to `COC(=O)c1ccccc1S(=O)(=O)NC(=O)Nc1nc(C)nc(OC)n1` [metsulfuron-methyl], the “Aqueous hydrolysis (DT50)” value in series [3] (at pH 5) was 2 days; in series [3] (at pH 7) it was “Stable”. For the same compound, where the note is “pH 7”, the “Photolytic stability DT50” value was “Stable”.
Consider `COc1cc(OC)nc(NC(=O)NS(=O)(=O)c2ncccc2C(=O)N(C)C)n1` [nicosulfuron], for which the “Aqueous hydrolysis (DT50)” value in series [3] (at pH 5) is 15 days; in series [3] (at pH 7) it was “Stable”. Where the note is “at pH 7”, the “Photolytic stability DT50” value is listed as “DT50: 202 d”.
On to `COc1cnc(OC)n2nc(NS(=O)(=O)c3c(OCC(F)F)cccc3C(F)(F)F)nc12` [penoxsulam], for which the Aqueous hydrolysis result in series [3] was “Stable (at pH 7 and 20° C.)”. In addition, the “Photolytic stability DT50” value (pH 7) is “DT50: 2 d (at pH 7)”.
As for `CC(C)=NOCCOC(=O)[C@@H](C)Oc1ccc(Oc2cnc3cc(Cl)ccc3n2)cc1` [propaquizafop, 2-isopropylideneaminooxyethyl (R)-2-[4-(6-chloroquinoxalin-2-yloxy)phenoxy]propionate], the “Hydrolytic DT50” value in series [3] (pH 5, 25° C.) is 10.5 days; in series [3] (pH 7, 25° C.) it was 32.0 days; in series [3] (pH 9, 25° C.), 0.538 days.
Regarding `COc1cc(OC)n2nc(NS(=O)(=O)c3c(C(F)(F)F)ccnc3OC)nc2n1` [pyroxsulam], the Aqueous hydrolysis entry in series [3] is reported as “Stable (“”)”. Further, the “Photolytic stability DT50” value (pH 7) is listed as “DT50: 3.2 d (“”)”.
In the case of `C[C@@H](Oc1ccc(Oc2cnc3cc(Cl)ccc3n2)cc1)C(=O)OCC1CCCO1` (stereo partly shown) [quizalofop-P-tefuryl], the “Aqueous hydrolysis (DT50)” value in series [3] (20° C. and pH 7) is “Aqueous hydrolysis DT50 at 20 °C and pH 7: 18.2 days”. For the same compound, the “Hydrolysis DT50” value in series [3] (pH 5.1, 22° C.) was 8.2 days; in series [3] (pH 9.2, 22° C.), 0.3 days. Further, where the note is “pH 7”, the “Aqueous photolysis DT50” value was “Aqueous photolysis DT50 at pH 7: 1.0 days”.
Take `COC(=O)c1ccccc1S(=O)(=O)NC(=O)N(C)c1nc(C)nc(OC)n1` [tribenuron-methyl]: the entries for the “Aqueous hydrolysis (DT50)” value in series [3] (at pH 5) and in series [3] (at pH 7) were 2.2 days and 16, respectively. Under “pH 7”, the “Photolytic stability DT50” value is given as “Stable”.
